According to patent US20060003976A1, “Cholesterol/bile acid/bile acid derivative-modified therapeutic drug compounds” (priority 2004, published 2006):
Where a name gives a salt, the structure may show the parent alone. Read-outs that look alike come from different tables or passages of the source.

Key:
[1] = system: HCT-116 (ATCC #CCL-247) (colorectal); conditions: HCT-116 (COLON); NCI GI50 values; read-out: GI50 (drug concentration that produces 50% cell growth inhibition); cited from earlier work
[2] = system: NCI-H460 (ATCC #HTB-177) (non-small cell lung); conditions: H460 (NSCLC); NCI GI50 values; read-out: GI50 (drug concentration that produces 50% cell growth inhibition); cited from earlier work
[3] = system: SKOV-3 (ATCC #HTB-77) (ovarian); conditions: SKOV-3 (OVARIAN); NCI GI50 values; read-out: GI50 (drug concentration that produces 50% cell growth inhibition); cited from earlier work
[4] = Solubility comparison in various solvents
Procedure: Compounds were dissolved in each solvent under constant stirring and temperature.

[5] = system: HCT-15 (ATCC #CCL-225) (colorectal); conditions: HCT-15 (COLON); NCI GI50 values; read-out: GI50 (drug concentration that produces 50% cell growth inhibition); cited from earlier work
[6] = system: NCI-H460 (ATCC #HTB-177) (non-small cell lung); type: cell-based; conditions: for GI50: read-out: GI50 (drug concentration that produces 50% cell growth inhibition); for GI50 (drug concentration that produces 50% cell growth inhibition): result in words
[7] = system: HCT-15 (ATCC #CCL-225) (colorectal); type: cell-based; conditions: for GI50: read-out: GI50 (drug concentration that produces 50% cell growth inhibition); for GI50 (drug concentration that produces 50% cell growth inhibition): result in words
[8] = system: HCT-116 (ATCC #CCL-247) (colorectal); type: cell-based; conditions: for GI50: read-out: GI50 (drug concentration that produces 50% cell growth inhibition); for GI50 (drug concentration that produces 50% cell growth inhibition): result in words
[9] = system: SKOV-3 (ATCC #HTB-77) (ovarian); type: cell-based; conditions: for GI50: read-out: GI50 (drug concentration that produces 50% cell growth inhibition); for GI50 (drug concentration that produces 50% cell growth inhibition): result in words

SMILES | GI50 [1] [nM] | GI50 [2] [nM] | GI50 [3] [nM] | GI50 ([6]; H460 (NSCLC), 48 hours) [nM] | GI50 ([7]; HCT-15 (COLON), 48 hours) [nM] | GI50 ([8]; HCT-116 (COLON), 48 hours) [nM] | GI50 (drug concentration that produces 50% cell growth inhibition) ([9]; SKOV-3 (OVARIAN), 48 hours) | also measured
CC[C@@]1(O)C(=O)OCc2c1cc1n(c2=O)Cc2cc3ccccc3nc2-1 [Camptothecin, camptothecin] | 40 | 16 | 25 | – | – | – | – | Solubility ([4]; Acetonitrile, r.t.): 0.09 mg/g; Solubility ([4]; Soybean Oil USP, r.t.): 0.00 mg/g; GI50 [5]: 160 nM
CCc1c2c(nc3ccc(OC(=O)CC4(CC(=O)O[C@H]5CC[C@@]6(C)C(=CC[C@H]7[C@@H]8CC[C@H]([C@H](C)CCCC(C)C)[C@@]8(C)CC[C@@H]76)C5)CCCC4)cc13)-c1cc3c(c(=O)n1C2)COC(=O)[C@]3(O)CC [Cholesterol 3,3-tetramethylene glutaric-10-(7-ethyl-10-hydroxycamptothecin)] | – | – | – | 871 | 12600 | 2000 | – | GI50 ([9]; SKOV-3 (OVARIAN), 48 hours): 295 nM
CC[C@@]1(OC(=O)CC2(CC(=O)O[C@H]3CC[C@@]4(C)C(=CC[C@H]5[C@@H]6CC[C@H]([C@H](C)CCCC(C)C)[C@@]6(C)CC[C@@H]54)C3)CCCC2)C(=O)OCc2c1cc1n(c2=O)Cc2cc3ccccc3nc2-1 [Cholesterol 3,3-tetramethylene glutaric-20-camptothecin] | – | – | – | ~10000 | ~10000 | ~10000 | poor | –
CCc1c2c(nc3ccc(OC(=O)CC(C)CC(=O)O[C@H]4CC[C@@]5(C)C(=CC[C@H]6[C@@H]7CC[C@H]([C@H](C)CCCC(C)C)[C@@]7(C)CC[C@@H]65)C4)cc13)-c1cc3c(c(=O)n1C2)COC(=O)[C@]3(O)CC (stereo partly drawn) [Cholesterol 3-methyl glutaric-10-SN38, Cholesterol 3-methylglutaric-10-(7-ethyl-10-hydroxycamptothecin)] | – | – | – | 245 | 2880 | 263 | poor | –
CC[C@@]1(OC(=O)CC(C)CC(=O)O[C@H]2CC[C@@]3(C)C(=CC[C@H]4[C@@H]5CC[C@H]([C@H](C)CCCC(C)C)[C@@]5(C)CC[C@@H]43)C2)C(=O)OCc2c1cc1n(c2=O)Cc2cc3ccccc3nc2-1 (stereo partly drawn) [Cholesterol 3-methyl glutaric-20-CPT, Cholesterol 3-Methyglutaric-20-Camptothecin] | – | – | – | – | – | – | poor | GI50 (drug concentration that produces 50% cell growth inhibition) ([6]; H460 (NSCLC), 48 hours): poor; GI50 (drug concentration that produces 50% cell growth inhibition) ([7]; HCT-15 (COLON), 48 hours): poor; GI50 (drug concentration that produces 50% cell growth inhibition) ([8]; HCT-116 (COLON), 48 hours): poor
CCc1c2c(nc3ccc(OC(=O)O[C@H]4CC[C@@]5(C)C(=CC[C@H]6[C@@H]7CC[C@H]([C@H](C)CCCC(C)C)[C@@]7(C)CC[C@@H]65)C4)cc13)-c1cc3c(c(=O)n1C2)COC(=O)[C@]3(O)CC [Cholesterol formate-10-SN38, Cholesterol formate-10-(7-ethyl-10-hydroxycamptothecin)] | – | – | – | 10.5 | 1910 | 631 | – | Solubility ([4]; Acetonitrile, r.t.): <1 mg/g; Solubility ([4]; Chloroform, r.t.): >40 mg/g; Solubility ([4]; Soybean Oil USP, r.t.): <1 mg/g; Solubility ([4]; Vitamin E USP/NF, 65 °C): >14 mg/g; GI50 ([9]; SKOV-3 (OVARIAN), 48 hours): 51.4 nM
CC[C@@]1(OC(=O)O[C@H]2CC[C@@]3(C)C(=CC[C@H]4[C@@H]5CC[C@H]([C@H](C)CCCC(C)C)[C@@]5(C)CC[C@@H]43)C2)C(=O)OCc2c1cc1n(c2=O)Cc2cc3ccccc3nc2-1 [Cholesterol formate-20-CPT, Cholesterol Formate-20-camptothecin] | – | – | – | – | – | – | poor | GI50 (drug concentration that produces 50% cell growth inhibition) ([6]; H460 (NSCLC), 48 hours): poor; Solubility ([4]; Acetonitrile, r.t.): <1 mg/g; Solubility ([4]; Chloroform, r.t.): >335 mg/g; Solubility ([4]; Soybean Oil USP, r.t.): >2 mg/g; Solubility ([4]; Vitamin E USP/NF, 65 °C): >32 mg/g; GI50 (drug concentration that produces 50% cell growth inhibition) ([7]; HCT-15 (COLON), 48 hours): poor; GI50 (drug concentration that produces 50% cell growth inhibition) ([8]; HCT-116 (COLON), 48 hours): poor
CCc1c2c(nc3ccc(OC(=O)CCC(=O)O[C@H]4CC[C@@]5(C)C(=CC[C@H]6[C@@H]7CC[C@H]([C@H](C)CCCC(C)C)[C@@]7(C)CC[C@@H]65)C4)cc13)-c1cc3c(c(=O)n1C2)COC(=O)[C@]3(O)CC [Cholesterol succinate-10-SN38, Cholesterol succinate-10-(7-ethyl-10-hydroxycamptothecin)] | – | – | – | – | – | – | – | GI50 [6]: 1660 nM; GI50 [7]: 635 nM; GI50 [8]: 339 nM; GI50 [9]: 708 nM
CC[C@@]1(OC(=O)CCC(=O)O[C@H]2CC[C@@]3(C)C(=CC[C@H]4[C@@H]5CC[C@H]([C@H](C)CCCC(C)C)[C@@]5(C)CC[C@@H]43)C2)C(=O)OCc2c1cc1n(c2=O)Cc2cc3ccccc3nc2-1 [Cholesterol succinate-20-CPT, Cholesterol succinate-20-camptothecin] | – | – | – | > 5000 | > 5000 | > 5000 | – | GI50 ([9]; SKOV-3 (OVARIAN), 48 hours): > 5000 nM
CCc1c2c(nc3ccc(OC(=O)N4CCC(N5CCCCC5)CC4)cc13)-c1cc3c(c(=O)n1C2)COC(=O)[C@]3(O)CC [Irinotecan, irinotecan] | 7900 | 5010 | 17 | – | – | – | – | –
CCc1c2c(nc3ccc(O)cc13)-c1cc3c(c(=O)n1C2)COC(=O)[C@]3(O)CC [SN38, 7-ethyl-10-hydroxycamptothecin] | 21 | 1.4 | 1 | – | – | – | – | GI50 [5]: 7.9 nM
CC[C@@]1(O)C(=O)OCc2c1cc1n(c2=O)Cc2cc3c(CN(C)C)c(O)ccc3nc2-1 [Topotecan, topotecan] | 39.8 | 19.9 | 63 | – | – | – | – | GI50 [5]: 501 nM
